# According to patent publication US10064814B2, “Use of spider venoms for skin whitening/depigmenting and composition comprising spider venoms molecules or synthetic analogs” (priority 2012, dated 2018):
# Entries after “also recorded” stand apart in the source; their conditions may differ. Where two headings read alike, the source gives them in different places.
# How the values were obtained:
# [1] = test system: tyrosinase; type: cell-based, murine; details: α-MSH stimulated B16F10 cells, FIG. 16
# Description: Western blot analyses were performed on B16F10 cells treated as previously described.
# [2] = test system: B16F10 cells; test: Cell viability assay (MTT); type: cell-based, murine; details: 42.1 μM
# Description: (§1) B16F10 were obtained from the American Type Culture Collection (ATCC CRL-6475, Manassas, Va., USA). Cells were cultured in Dulbecco's Modified Eagle Medium (DMEM) supplemented by 10% heat-inactivated foetal bovine serum (FBS, LONZA ltd., Basel, Switzerland) and penicillin/streptomycin (50 μg/ml) in a humidified atmosphere containing 5% CO2 at 37° C.
# The evaluation of B16F10 cells survival relies on the reduction of the tetrazolium ring of water soluble MTT (3-[4,5-dimethylthiazol-2-yl]-2,5-diphenyltetrazolium bromide; Sigma Aldrich) into insoluble purple formazan crystals by the mitochondrial succinate dehydrogenase enzyme. The production of formazan directly reflects the number of living […] cells. B16F10 cells were seeded at 25000 per well in a 96-well plate and incubated in standard culture condition. […] Then, the supernatant was removed and replace by 50 μl of 0.5 mg/ml of MTT solution. The cells were exposed to MTT for 2 h. Finally, each well was washed by PBS1X and the crystals contained in wells are solubilized by adding 100 μl of DMSO. After briefly shaked the plate, the absorbance is measured at 600 nm.
# [3] = test system: mushroom tyrosinase (DHICA oxidase activity); test: DHICA oxidase-inhibiting activity by MBTH assay; type: biochemical, Agaricus bisporus; details: DHICA substrate 0.25 mM
# Description: (§2) Mushroom (Agaricus bisporus) tyrosinase (SIGMA-ALDRICH, T3824) has both DHICA oxidase and DOPA oxidase activity ([…] et al, Pigment Cell Res., vol. 12(2), p: 118-25, 1999).
# DHICA is used as substrate at 0.25 mM. MBTH was obtained from Alfa Aesar and DHICA was prepared according to […] & ITO, (Anal. Biochem., vol. 170(2), p: 335-40, 1988). Here, the MBTH method was used. This method consists to visualize the production of hydrazone-quinone adduct by spectrophotometry. The principle is that MBTH captures the indole-quinone which was generated by the oxidation of dihydroxyindole compounds. DHICA is converted to indole-5,6-quinone-2-carboxylic acid by the DHICA oxidase activity of mushroom tyrosinase, the indole product is trapped by MBTH and the complex formation can be detected at 492 nm (OLIVARES et al, Biochem. J., vol. 354, p: 131-139, 2001). • c) The DHICA oxidase inhibiting activity using mushroom tyrosinase was assayed in vitro. The procedure is the same as described by WINDER & HARRIS (Eur. J. Biochem., vol. 198(2), p: 317-26, 1991) for DOPA oxidase with minor modifications. Purification of the fractions
# The experimental conditions are the same as previously mentioned. DHICA was used as substrate at 0.25 mM.
# [4] = test system: B16F10 cells; test: Measurement of melanin content in B16F10 melanoma cells (melanogenesis assay); type: cell-based, murine; details: for IC50: read-out: IC50 melanogenesis (melanin released in the medium)
# Description: as §1
# Determination of the extracellular melanin is considered as an index of melanogenesis. B16F10 cells were cultured in 24-well plate (5.10^4 cells/well) in a phenol red free medium and stimulated with 100 nM of α-MSH. […] To quantify the amount of melanin released in the medium, the absorbance of 200 μl of supernatant was read at 405 nm. The values were normalized by the measurement of total protein level present in each well.
# Cells were washed with PBS1X and dissolved in 200 μl of NaOH 1N for 1 h at 60° C. The lysate was then centrifuged and the protein content determined by the Folin Lowry method, using the DC protein Assay kit from BIO-RAD (Marnes-la-Coquette, France). The absorbance is read at […].
# B16F10 are murine melanoma cells, a cell line able to produce melanin and considered as an accurate model to assess melanogenesis inhibition. Cells were seeded at 5.10^4 cells/well in a P24 well plate and stimulated by 100 nM of α-MSH, the melanin-stimulating hormone. […] 48 h later, according to […] & EBERLE (Analytical Biochemistry, vol. 159(1), p: 191-7, 1986), the amount of melanin released in the medium was spectrophotometrically measured at 405 nm and normalised to the protein content.
# [5] = test system: B16F10 cells; test: LDH cell-based assay (cytotoxicity); set-up: species or system murine; details: 42.1 μM
# [6] = test system: TRP1; test: Western blot analysis of TRP1 expression; type: cell-based, murine; details: α-MSH stimulated B16F10 cells, FIG. 16
# Description: Cells were seeded at 1.10^6 cells/dish and cultivated in n-dish as previously described. After trypsination, the pelled were homogenized in a solution containing Sodium Dodecyl Sulphate (SDS) and were boiled 5 min at 96° C. to denature the proteins. Protein extracts were separated via a 10% SDS-PAGE for 1 h at 200 V and transferred onto a polyvinylidene difluoride membrane (GE healthcare Europe, Vélizy-villacoublay, France). The membranes were blocked overnight with 5% non-fat skim milk in a Tris-buffered saline solution containing 0.1% Tween. Membranes were incubated for 1 h at 37° C. with specific antibody against tyrosinase, TRP1 or MITF (C-19; G-17; N-15, 1:200 for Tyrosinase and TRP1 and 1:100 for MITF, Santa Cruz, Heidelberg, Germany) and actin as a control (C-11, 1:200, Santa Cruz). Membranes were incubated with secondary antibody coupled to horseradish peroxidase (HRP) for 2 h at room temperature (anti-goat 1:2500 for tyrosinase, TRP1 and MITF (ab 97120, Abcam, Paris, France) and anti-rabbit 1:2500 for actin (NA 934V, GE Healthcare)). […] Pre-stained protein markers were used for molecular weight.
# To explore the mechanism of action of Argiotoxin in melanogenesis processes, we assess its ability to regulate the protein expression of two enzymes, the tyrosinase and TRP1 which is implicated in the biosynthesis of black/brown pigments specifically. […]
# [7] = biological target: mushroom tyrosinase (DOPA oxidase activity) (Agaricus bisporus, UniProt C7FF04); test: DOPA oxidase inhibiting activity by spectrophotometry (mushroom tyrosinase assay); type: biochemical; details: FIG. 12
# Description: as §2
# The effect of different spider venoms on the DOPA oxidase activity was measured spectrophotometrically. The DOPA oxidase activity was determined using L-DOPA as substrate at 0.2 mM. The amount of DOPA chrome (red pigment) formed was measured against blank at 475 nm. The percentage of DOPA oxidase inhibition was obtained from: Inhibition percentage=[…]
# With: • A: Absorbance at 475 nm of the reaction medium+inhibitor sample solution with enzyme • B: Absorbance at 475 nm of the reaction medium+inhibitor sample solution without enzyme (blank) • C: Absorbance at 475 nm of the reaction medium enzyme without inhibitor sample solution • D: Absorbance at 475 nm of the reaction medium without both enzyme and inhibitor sample solution […]
# For the DOPA activity assay: 500 μL of the L-DOPA solution at 0.4 mM is mixed with different volumes according to the different natural inhibitors at 10 mg/mL, and 5 μL of the mushroom tyrosinase solution (added last to initiate the enzymatic reaction and must be kept in ice). […] The absorbance is measured at 475 nm every minute for 15 min using a UV-VIS spectrophotometer BIOMATE 5®. […]
# Sequence of mushroom tyrosinase (DOPA oxidase activity) (C7FF04 1-392): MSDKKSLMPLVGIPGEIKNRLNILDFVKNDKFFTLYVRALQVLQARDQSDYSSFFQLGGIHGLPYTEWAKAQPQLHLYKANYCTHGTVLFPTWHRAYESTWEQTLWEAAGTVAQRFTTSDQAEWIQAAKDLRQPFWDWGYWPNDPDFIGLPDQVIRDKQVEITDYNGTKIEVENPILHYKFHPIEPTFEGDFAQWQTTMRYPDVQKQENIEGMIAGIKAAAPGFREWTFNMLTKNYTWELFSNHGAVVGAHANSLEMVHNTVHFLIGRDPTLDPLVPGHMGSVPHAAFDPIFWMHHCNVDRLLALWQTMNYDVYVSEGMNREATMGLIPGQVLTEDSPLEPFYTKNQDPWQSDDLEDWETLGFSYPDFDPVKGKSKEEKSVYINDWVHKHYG
# Sequence of mushroom tyrosinase (DOPA oxidase activity) (G1K3P4 1-150 partner): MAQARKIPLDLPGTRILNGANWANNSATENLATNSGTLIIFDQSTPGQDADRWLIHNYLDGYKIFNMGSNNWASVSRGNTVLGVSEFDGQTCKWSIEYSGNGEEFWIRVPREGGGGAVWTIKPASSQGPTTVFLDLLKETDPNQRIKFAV
compound,measurement,setting,value
"N=C(N)NCCC[C@H](N)C(=O)NCCCNCCCNCCCCCNC(=O)[C@H](CC(N)=O)NC(=O)Cc1ccc(O)cc1O [Argiotoxin, Argiotoxin-636]",expression of tyrosinase protein,[1],significant inhibition
same,cell death (MTT),[2],neither cell death nor cytotoxicity
same,inhibition of DHICA oxidase activity,[3],dose-dependent inhibition is visible up to 100 μM; also recorded: dose-dependent manner up to 75 μM
same,fold higher activity on the cellular assay compared with DHPA,[4]; B16F10 melanogenesis,100 fold
same,IC50,"[4]; Mus musculus, B16-F10, 48 h",~0.01 µM
same,cytotoxicity (LDH),[5],neither cell death nor cytotoxicity
same,expression of TRP1 protein,[6],significant inhibition
"O=c1cc(CO)occ1O [Kojic acid, Kojic Acid, reference compound]",IC50,"[4]; Mus musculus, B16-F10, B16F10, 100 nM α-MSH, 48 h treatment",~5 µM
same,expression of TRP1 protein,[6],faintly decreases
"O=C(O)Cc1ccc(O)cc1O [2,4-DHPAA]",IC50,[7],~6000 µM
same,type of inhibition of DOPA oxidase activity,[7]; suggested from dose-response,competitive inhibitor
same,IC50,"[4]; B16F10, 100 nM α-MSH, 48 h treatment",~5 µM
